For data set [1], the system named is THP-1. The data set is described as follows: Induction of apoptosis in human THP-1 cells assessed as increase in Noxa measured after 24 hrs by Western blot analysis. The data set is classed as functional, cell-based. The note with it: dose 10-20 µM. (In general: In western blotting, separated proteins are transferred to a membrane and probed.)
The target in data set [2] is Apoptosis regulator Bcl-2 (Homo sapiens, UniProt P10415). Description: Binding affinity to Bcl-2 in human THP-1 cells assessed as dissociation of Bim from Bcl-2 at 20 uM measured after 24 hrs by Co-immunoprecipitation (Co-IP) assay. In kind it is cell-based.
Data set [3] relates to THP-1. Description: Induction of apoptosis in Noxa knockdown human THP-1 cells assessed as PARP cleavage at 20 uM measured after 24 hrs by […]. The data set is classed as functional, cell-based.
A short description of data set [4]: Half life in Sprague-Dawley rat at 5 mg/kg, iv measured upto 24 hrs by LC-MS/MS analysis. In kind it is ADME, organism-based. Particulars: in vivo.
Data set [5] can be described thus: Tmax in Sprague-Dawley rat at 5 mg/kg, iv measured upto 24 hrs by LC-MS/MS analysis. In kind it is ADME, organism-based. The note with it: in vivo.
A short description of data set [6]: AUC (0 to t) in Sprague-Dawley rat at 5 mg/kg, iv measured upto 24 hrs by LC-MS/MS analysis. In kind it is ADME, organism-based. Particulars: in vivo.
Data set [7] is described as follows: MRT (0 to t) in Sprague-Dawley rat at 5 mg/kg, iv measured upto 24 hrs by LC-MS/MS analysis. In kind it is ADME, organism-based. The note with it: in vivo.
A short description of data set [8]: Half life in Sprague-Dawley rat at 20 mg/kg, ip measured upto 24 hrs by LC-MS/MS analysis. The data set is classed as ADME, organism-based. Particulars: in vivo.
The nature of data set [9]: Tmax in Sprague-Dawley rat at 20 mg/kg, ip measured upto 24 hrs by LC-MS/MS analysis. In kind it is ADME, organism-based. Particulars: in vivo.
A short description of data set [10]: AUC (0 to t) in Sprague-Dawley rat at 20 mg/kg, ip measured upto 24 hrs by LC-MS/MS analysis. The data set is classed as ADME, organism-based. The note with it: in vivo.
Data set [11] is described as follows: AUC (0 to infinity) in Sprague-Dawley rat at 20 mg/kg, ip measured upto 24 hrs by LC-MS/MS analysis. In kind it is ADME, organism-based. Particulars: in vivo.
Data set [12] in a line: MRT (0 to t) in Sprague-Dawley rat at 20 mg/kg, ip measured upto 24 hrs by LC-MS/MS analysis. The data set is classed as ADME, organism-based. Particulars: in vivo.
A short description of data set [13]: Bioavailability in Sprague-Dawley rat at 20 mg/kg, ip measured upto 24 hrs by LC-MS/MS analysis. Particulars: in vivo. In kind it is ADME, organism-based.
Data set [14] is described as follows: Cytotoxicity against rat H9c2 cells assessed as cell viability measured after 72 hrs by MTT assay. The data set is classed as toxicity, cell-based. On the technique in general: Tetrazolium dyes change colour on reduction, which living cells bring about.
A short description of data set [15]: Toxicity in NOD SCID mouse assessed as change in body weight at 25 mg/kg, ip administered for 7 consecutive days. The data set is classed as organism-based. The note with it: in vivo, 168 h, time 7 day.
Data set [16] in a line: Toxicity in NOD SCID mouse assessed as change in spleen tissue at 25 mg/kg, ip administered for 7 consecutive days by Hematoxylin-eosin (HE) staining based assay. The data set is classed as organism-based. Particulars: in vivo, 168 h, time 7 day.
A short description of data set [17]: Toxicity in NOD SCID mouse assessed as change in lung tissue at 25 mg/kg, ip administered for 7 consecutive days by Hematoxylin-eosin (HE) staining based assay. In kind it is organism-based. Particulars: in vivo, 168 h, time 7 day.
The nature of data set [18]: Toxicity in NOD SCID mouse xenografted with human HL-60 cells assessed as change in body weight at 80 mg/kg, ip once daily after 15 days of tumor inoculation treated for 12 days. The data set is classed as organism-based. The note with it: in vivo, 288 h, time 12 day.
The nature of data set [19]: Toxicity in NOD SCID mouse xenografted with human HL-60 cells assessed as change in heart tissue at 80 mg/kg, ip once daily after 15 days of tumor inoculation treated for 12 days. The data set is classed as organism-based. The note with it: in vivo, 288 h, time 12 day.
A short description of data set [20]: Toxicity in NOD SCID mouse xenografted with human HL-60 cells assessed as change in spleen tissue at 80 mg/kg, ip once daily after 15 days of tumor inoculation treated for 12 days. The note with it: in vivo, 288 h, time 12 day. The data set is classed as organism-based. For orientation: Xenograft models place foreign cells or tissue in a host animal.
Data set [21] has as its system THP-1. Description: In vivo antitumor activity against human THP-1 cells xenografted in female NOD SCID mouse assessed as tumor growth inhibition at 40 mg/kg, ip once daily after 10 days of tumor inoculation treated for 14 days relative to control. Particulars: THP-1, 336 h, time 14 day, read-out: TGI. The data set is classed as functional.
A short description of data set [22]: Toxicity in NOD SCID mouse xenografted with human THP-1 cells assessed as change in spleen tissue at 40 to 80 mg/kg, ip once daily after 10 days of tumor inoculation treated for 14 days relative to control. In kind it is organism-based. Particulars: in vivo, 336 h, dose 40-80 mg/kg, time 14 day.
A short description of data set [23]: Toxicity in NOD SCID mouse xenografted with human THP-1 cells assessed as change in liver tissue at 40 to 80 mg/kg, ip once daily after 10 days of tumor inoculation treated for 14 days relative to control. Particulars: in vivo, 336 h, dose 40-80 mg/kg, time 14 day. The data set is classed as organism-based.
The nature of data set [24]: Toxicity in NOD SCID mouse xenografted with human THP-1 cells assessed as change in body weight at 40 to 80 mg/kg, ip once daily after 10 days of tumor inoculation treated for 14 days relative to control. In kind it is organism-based. Particulars: in vivo, 336 h, dose 40-80 mg/kg, time 14 day.

This note sets out measurements from ChEMBL document CHEMBL5584309, “Discovery of Novel Mcl-1 Inhibitors with a 3-Substituted-1H-indole-1-yl Moiety Binding to the P1-P3 Pockets to Induce Apoptosis in Acute Myeloid Leukemia Cells” (J Med Chem, 2024).

Activity calls are given as the source filed them. The calls are words filed in the database; no cut-off is given here.

Chain of Apoptosis regulator Bcl-2 (P10415 whole entry): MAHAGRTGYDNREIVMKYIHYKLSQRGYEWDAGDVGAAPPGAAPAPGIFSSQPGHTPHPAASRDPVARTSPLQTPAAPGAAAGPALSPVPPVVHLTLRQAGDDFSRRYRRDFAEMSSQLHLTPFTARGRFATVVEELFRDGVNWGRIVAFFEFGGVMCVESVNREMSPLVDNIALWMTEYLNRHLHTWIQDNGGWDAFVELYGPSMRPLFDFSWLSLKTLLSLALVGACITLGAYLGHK

For `Cc1cc(OCCCc2c(C(=O)O)n(CCN3CCOCC3)c3c(-c4ccccc4Cn4cc(CCN(CCN5CCOCC5)S(=O)(=O)c5ccc(F)cc5)c5ccccc54)cccc23)cc(C)c1Cl`, the Activity result is “Dose-Dependent Effect” in data set [1]; “Non-Toxic” in data set [15]; “Non-Toxic” in data set [16]; “Non-Toxic” in data set [17]; “Non-Toxic” in data set [18]; “Non-Toxic” in [19]. Moreover, the Activity entry in data set [20], in data set [22], in [23] and in [24] was “Non-Toxic” throughout. Moreover, the outcome in [2] and in [3] was inactive. Further, the values for the half-life in data set [4] and in data set [8] were 294 min and 246 min, respectively. Moreover, the Tmax worked out at 4.98 min in data set [5] and 5.33 h in data set [9]. Also, the AUC(0-t) at 24 h in data set [6] was 18700 ng·h/mL; in data set [10], 54600 ng·h/mL. Also, the MRT last at 24 h in data set [7] was determined as 1.14 h; in data set [12], 6.51 h. Further, the area under the curve AUC(0-inf) in [11] was 55800 ng·h/mL. The same molecule showed a bioavailability in data set [13] of 74%. In [14], the IC50 at 72 h stood at 17.9 µM. For the same molecule, in [21], the inhibition in vivo at 40 mg/kg was determined as 40.2%.

By half-life is commonly meant how long it takes for the measured level to halve. High values mean slow decline, low ones rapid decline. The Tmax is the time from dosing to the highest level. By AUC(0-t) is commonly meant the area under the concentration-time curve up to a stated or last time point. A low value points to low exposure. Usually MRT last stands for a mean duration of stay, worked out from the concentration-time curve. One may read the AUC(0-inf) as total exposure, with the tail of the curve extrapolated. Higher therefore signals more exposure. A word on the bioavailability: it is the share of a dose that reaches the circulation, judged against a reference dose that is usually intravenous. The IC50 is the concentration that inhibits the measured activity by half.
